Reference: patent publication US7063946B2, “Methods, reagents, kits and apparatus for protein function analysis” (Meso Scale Technologies, LLC., priority 2001, dated 2006)

How the values were obtained:
Assay in all cases: Kinase inhibitor profiling, pEY phosphorylation
Type in all cases: biochemical
[1] = target: T1, FGFR2 (Mus musculus, UniProt P21803)
T1 construct: specificity data for proteins generated from a library of eighteen full-length clones; host or cells: rabbit reticulocyte lysate, TnT coupled in vitro transcription/translation (cell-free)
Procedure: (§1) Proteins were produced in an in vitro transcription and translation reaction. […] The unbound components of the reaction containing endogenous kinases were removed by three washes with TT-buffer (25 mM Tris-HCl buffer pH 7.4 and 0.004% Triton), two five minutes washings with high-salt wash buffer (25 mM Tris-HCl buffer pH 7.4, 0.004% Triton, 1M NaCl and 5 mM DTT) and 3 more washes with TT-buffer. To these immobilized and purified proteins a tyrosine kinase substrate, 5 nM pEY (poly Glu-Tyr, Sigma, MO), was added in a 50 μl reaction solution containing 5 mM MgCl2, 5 mM MnCl2, 100 μM ATP, 25 mM Tris-HCl buffer pH 7.4, 0.05 mM Na3VO4, 0.004% TritonX-100, 2 mM DTT and EDTA-free protease inhibitor (Roche Molecular Biochemicals). This mixture was incubated with shaking at room temperature overnight to allow phosphorylation of the pEY substrate by the immobilized kinases. Following this incubation, 45 μl of this mixture was transferred to a streptavidin or avidin-coated NPT IPR plate coated with biotinylated anti-phosphotyrosine antibody (PY20, Zymed labs, CA) followed by incubation for 30 minutes at room temperature to allow the binding of the phosphorylated pEY substrate to the PY20 coated NPT plate. Following this binding step, 50 ng Sulfo-TAG labeled anti-phosphotyrosine in buffer containing 25 mM Tris-HCl buffer pH 7.4, 5 mM MgCl2, 0.05 mM Na3VO4, 0.004% TritonX-100, 2 mM DTT and 0.05% IgG was added followed by incubation at room temperature for 30 mm. The unbound reagents were removed by one time washing with water, and the TAG label was detected in presence of 150 μl IPR assay buffer (0.4 mM Gly-Gly buffer, pH 7.8, 1 mM EDTA, 0.1 M TPA). The ECL signals were measured using an imaging plate reader.
(§2) Proteins were produced using 100 ng of plasmid DNA Mock (Luciferase, Promega) or tyrosine kinases (Fert2 IMAGE ID # 4485050, FGFR1 IMAGE ID # 4037899, Fgfr2 IMAGE ID # 2654352, Src IMAGE ID # 3156400, BMX IMAGE ID # 3919253, LCK IMAGE ID # 4191610, Epha7 IMAGE ID # 3991628, Ephb4 IMAGE ID # 4013934, Tek IMAGE ID # 3482498, HCK IMAGE ID # 4778819, BTK IMAGE ID # 4478463, CSK IMAGE ID # 4398416, SYK IMAGE ID # 3870426, FGR IMAGE ID # 4419973, PTK2B IMAGE ID # 4339456, FRK(IMAGE ID # 4515877, Kit IMAGE ID # 2644960, Fgfr-4 IMAGE ID # 4239139, NTRK3 IMAGE ID # 4181574, Kdr IMAGE ID # 4238984, Incyte Genomics, CA) and immobilized on SA or avidin coated NPT-IPR plates as described in previous examples. The unbound components of the translation reaction (including any endogenous kinases) were removed by 3 washes with TT-buffer (25 mM Tris-HCl buffer pH 7.4 and 0.004% Triton), two five minutes washes with high-salt wash buffer (25 mM Tris-HCl buffer pH 7.4, 0.004% Triton, 1M NaCl and 5 mM DTT) and 3 washes with TT-buffer. […] The mixture was incubated at room temperature for 10 mm before starting the kinase reaction by adding 25 μl of 200 μM ATP in buffer A. This mixture was incubated with intermittent shaking at room temperature for 2 hours to overnight to allow (a) phosphorylation of the pEY substrate and (b) autophosphorylation of the immobilized kinases. Autophosphorylation and phosphorylation of the pEY was measured as described in Examples 7 and 8.
(§3) The ECL signal in control wells produced by tyrosine kinases was compared to the wells containing inhibitor compounds. The signal produced from Mock was negligible.

[2] = target: T2, FGFR1 (Homo sapiens, UniProt P11362)
T2 construct: specificity data for proteins generated from a library of eighteen full-length clones; host or cells: rabbit reticulocyte lysate, TnT coupled transcription/translation
Procedure: as §1, §2, §3

[3] = target: T3, Kit (Mus musculus, UniProt P05532)
T3 construct: specificity data for proteins generated from a library of eighteen full-length clones; biotin on random lysines (biotin-Lys-tRNA); host or cells: rabbit reticulocyte lysate, coupled transcription/translation (TnT, Promega)
Procedure: as §1, §2, §3

[4] = target: T4, EphB4 (Mus musculus, UniProt P54761)
T4 construct: specificity data for proteins generated from a library of eighteen full-length clones; host or cells: rabbit reticulocyte lysate, TnT coupled in vitro transcription/translation (cell-free)
T4 sequence (P54761 16-987): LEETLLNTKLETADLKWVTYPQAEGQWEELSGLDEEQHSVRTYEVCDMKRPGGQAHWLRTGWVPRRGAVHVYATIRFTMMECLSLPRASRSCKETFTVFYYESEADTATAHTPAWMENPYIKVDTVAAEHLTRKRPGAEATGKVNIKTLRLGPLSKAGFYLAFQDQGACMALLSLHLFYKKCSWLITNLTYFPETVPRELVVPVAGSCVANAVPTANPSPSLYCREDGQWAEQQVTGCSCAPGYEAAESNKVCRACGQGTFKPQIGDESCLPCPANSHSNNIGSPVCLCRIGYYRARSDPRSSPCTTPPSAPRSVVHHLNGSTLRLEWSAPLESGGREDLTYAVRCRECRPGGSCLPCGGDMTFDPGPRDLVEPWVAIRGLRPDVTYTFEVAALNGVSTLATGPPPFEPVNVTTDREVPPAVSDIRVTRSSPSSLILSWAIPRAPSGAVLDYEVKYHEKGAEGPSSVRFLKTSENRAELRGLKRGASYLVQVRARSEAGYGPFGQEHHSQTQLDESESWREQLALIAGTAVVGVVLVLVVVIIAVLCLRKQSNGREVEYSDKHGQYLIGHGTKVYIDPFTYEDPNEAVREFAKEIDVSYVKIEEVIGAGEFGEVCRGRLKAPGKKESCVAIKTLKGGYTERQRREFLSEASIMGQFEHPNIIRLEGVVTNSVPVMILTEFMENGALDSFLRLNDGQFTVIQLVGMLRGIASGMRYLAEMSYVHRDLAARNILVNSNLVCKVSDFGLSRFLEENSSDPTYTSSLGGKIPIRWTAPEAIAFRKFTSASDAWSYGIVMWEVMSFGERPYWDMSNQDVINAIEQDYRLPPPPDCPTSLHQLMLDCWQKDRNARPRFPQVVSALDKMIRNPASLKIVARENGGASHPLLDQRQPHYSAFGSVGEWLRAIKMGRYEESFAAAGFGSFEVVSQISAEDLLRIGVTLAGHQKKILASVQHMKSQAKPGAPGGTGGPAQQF
Procedure: as §1, §2, §3

[5] = target: T5, Fgfr4 (Mus musculus, UniProt Q03142)
T5 construct: specificity data for proteins generated from a library of eighteen full-length clones; biotin on random lysines (biotin-Lys-tRNA); host or cells: rabbit reticulocyte lysate, coupled transcription/translation (TnT, Promega)
Procedure: as §1, §2, §3

T1 sequence (P21803 22-821): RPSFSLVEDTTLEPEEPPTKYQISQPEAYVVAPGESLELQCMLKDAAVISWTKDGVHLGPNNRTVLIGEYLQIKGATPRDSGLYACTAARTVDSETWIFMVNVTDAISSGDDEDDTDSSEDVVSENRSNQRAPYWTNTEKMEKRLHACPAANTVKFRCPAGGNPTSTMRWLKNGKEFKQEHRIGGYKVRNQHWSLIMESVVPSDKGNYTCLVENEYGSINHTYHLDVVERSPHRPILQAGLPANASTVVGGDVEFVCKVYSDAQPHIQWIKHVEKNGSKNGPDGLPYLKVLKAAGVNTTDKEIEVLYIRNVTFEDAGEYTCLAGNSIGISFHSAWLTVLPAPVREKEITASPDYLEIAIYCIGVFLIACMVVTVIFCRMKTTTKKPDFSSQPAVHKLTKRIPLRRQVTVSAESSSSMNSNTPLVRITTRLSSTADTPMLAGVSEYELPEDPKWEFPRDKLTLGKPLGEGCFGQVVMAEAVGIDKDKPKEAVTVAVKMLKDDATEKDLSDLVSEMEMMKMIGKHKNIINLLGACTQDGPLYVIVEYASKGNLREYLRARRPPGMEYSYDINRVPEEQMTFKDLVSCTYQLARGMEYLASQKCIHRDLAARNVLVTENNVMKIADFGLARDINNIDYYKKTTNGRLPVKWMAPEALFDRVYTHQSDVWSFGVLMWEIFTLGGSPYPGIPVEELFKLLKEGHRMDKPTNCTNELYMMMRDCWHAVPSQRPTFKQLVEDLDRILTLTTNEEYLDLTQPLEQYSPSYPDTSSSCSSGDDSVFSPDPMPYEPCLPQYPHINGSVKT
T3 sequence (P05532 25-979): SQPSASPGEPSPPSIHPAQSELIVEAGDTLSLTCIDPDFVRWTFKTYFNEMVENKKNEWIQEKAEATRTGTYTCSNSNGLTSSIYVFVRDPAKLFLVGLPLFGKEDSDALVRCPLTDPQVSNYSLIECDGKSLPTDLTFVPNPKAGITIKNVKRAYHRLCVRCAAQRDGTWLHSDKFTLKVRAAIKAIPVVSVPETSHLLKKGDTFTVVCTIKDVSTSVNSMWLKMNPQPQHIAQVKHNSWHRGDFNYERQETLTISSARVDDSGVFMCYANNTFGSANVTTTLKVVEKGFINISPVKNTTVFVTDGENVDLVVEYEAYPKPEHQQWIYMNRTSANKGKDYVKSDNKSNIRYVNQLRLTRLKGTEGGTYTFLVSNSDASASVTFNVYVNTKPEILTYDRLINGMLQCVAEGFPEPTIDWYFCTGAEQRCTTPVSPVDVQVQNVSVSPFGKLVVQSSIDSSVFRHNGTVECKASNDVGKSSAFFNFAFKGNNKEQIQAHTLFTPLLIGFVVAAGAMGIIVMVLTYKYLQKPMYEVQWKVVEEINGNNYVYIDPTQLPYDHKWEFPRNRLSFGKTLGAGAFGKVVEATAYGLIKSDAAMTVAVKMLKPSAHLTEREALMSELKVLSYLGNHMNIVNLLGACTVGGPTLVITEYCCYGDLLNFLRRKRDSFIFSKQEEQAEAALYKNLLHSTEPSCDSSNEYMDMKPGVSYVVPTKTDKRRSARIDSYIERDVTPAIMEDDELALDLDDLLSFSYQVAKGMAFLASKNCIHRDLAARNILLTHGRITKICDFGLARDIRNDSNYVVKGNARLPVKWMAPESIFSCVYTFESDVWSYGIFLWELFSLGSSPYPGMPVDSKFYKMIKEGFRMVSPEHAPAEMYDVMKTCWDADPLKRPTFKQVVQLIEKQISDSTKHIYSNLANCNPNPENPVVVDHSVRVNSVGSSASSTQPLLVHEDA
T2 sequence (P11362 22-822): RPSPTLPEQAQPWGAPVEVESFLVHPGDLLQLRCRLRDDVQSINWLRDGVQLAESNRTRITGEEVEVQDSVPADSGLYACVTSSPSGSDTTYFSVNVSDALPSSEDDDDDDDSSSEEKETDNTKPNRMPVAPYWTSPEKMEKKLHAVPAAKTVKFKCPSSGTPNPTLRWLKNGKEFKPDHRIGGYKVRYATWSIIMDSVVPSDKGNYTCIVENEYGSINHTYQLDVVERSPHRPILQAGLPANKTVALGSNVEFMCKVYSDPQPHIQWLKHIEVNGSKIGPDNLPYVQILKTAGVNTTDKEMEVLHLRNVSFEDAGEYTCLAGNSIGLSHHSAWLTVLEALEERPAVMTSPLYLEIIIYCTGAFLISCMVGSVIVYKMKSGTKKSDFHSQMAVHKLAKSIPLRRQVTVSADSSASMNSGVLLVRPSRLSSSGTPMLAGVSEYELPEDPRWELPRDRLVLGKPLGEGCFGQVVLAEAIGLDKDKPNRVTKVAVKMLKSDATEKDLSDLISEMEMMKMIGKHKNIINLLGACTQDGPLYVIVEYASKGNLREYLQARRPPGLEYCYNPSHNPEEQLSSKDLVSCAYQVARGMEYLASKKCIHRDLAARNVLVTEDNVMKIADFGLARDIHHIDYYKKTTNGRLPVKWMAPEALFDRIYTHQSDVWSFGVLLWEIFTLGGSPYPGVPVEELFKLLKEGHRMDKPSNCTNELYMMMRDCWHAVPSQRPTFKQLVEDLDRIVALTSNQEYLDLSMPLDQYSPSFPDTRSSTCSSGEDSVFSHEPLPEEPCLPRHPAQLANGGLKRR
T5 sequence (Q03142 17-799): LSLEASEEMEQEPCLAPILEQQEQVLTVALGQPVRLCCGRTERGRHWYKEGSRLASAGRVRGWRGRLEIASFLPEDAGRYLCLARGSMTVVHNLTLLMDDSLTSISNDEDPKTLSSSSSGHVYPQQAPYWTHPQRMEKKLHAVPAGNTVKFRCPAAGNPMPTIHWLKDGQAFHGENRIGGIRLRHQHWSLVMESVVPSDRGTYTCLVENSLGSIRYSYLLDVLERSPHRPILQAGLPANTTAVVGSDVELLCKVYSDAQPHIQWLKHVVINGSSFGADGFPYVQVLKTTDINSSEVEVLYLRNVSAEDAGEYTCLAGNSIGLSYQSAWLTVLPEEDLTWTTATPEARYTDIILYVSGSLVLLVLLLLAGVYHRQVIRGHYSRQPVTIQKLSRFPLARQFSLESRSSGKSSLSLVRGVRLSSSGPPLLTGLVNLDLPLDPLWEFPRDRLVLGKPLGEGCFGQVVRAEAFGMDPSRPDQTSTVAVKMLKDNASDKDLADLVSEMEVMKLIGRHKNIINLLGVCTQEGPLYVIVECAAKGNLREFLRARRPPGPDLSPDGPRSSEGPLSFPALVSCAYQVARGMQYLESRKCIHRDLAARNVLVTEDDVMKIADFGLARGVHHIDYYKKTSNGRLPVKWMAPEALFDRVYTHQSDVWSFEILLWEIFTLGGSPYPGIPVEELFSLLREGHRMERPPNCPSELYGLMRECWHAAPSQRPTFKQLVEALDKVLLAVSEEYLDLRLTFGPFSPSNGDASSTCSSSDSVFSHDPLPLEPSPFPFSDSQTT

Molecule | Inhibition specificity towards pEY phosphorylation at 10X IC50, FGFR2 [1] | Inhibition specificity towards pEY phosphorylation at 10X IC50, FGFR1 [2] | Inhibition specificity towards pEY phosphorylation at 10X IC50, Kit [3] | Inhibition specificity towards pEY phosphorylation at 10X IC50, EphB4 [4] | Inhibition specificity towards pEY phosphorylation at 10X IC50, Fgfr4 [5]
COC(=O)c1ccc(NCc2cc(O)ccc2O)cc1 [AG-957] | L (low inhibition (“L”=between 50–75% of the activity remaining)) | L (low inhibition (“L”=between 50–75% of the activity remaining)) | L (low inhibition (“L”=between 50–75% of the activity remaining)) | L (low inhibition (“L”=between 50–75% of the activity remaining)) | 
CC(C)(C)c1cc(C=C(C#N)C#N)cc(Br)c1O [AG-1024] | L (low inhibition (“L”=between 50–75% of the activity remaining)) | L (low inhibition (“L”=between 50–75% of the activity remaining)) | L (low inhibition (“L”=between 50–75% of the activity remaining)) | L (low inhibition (“L”=between 50–75% of the activity remaining)) | M (medium inhibition (“M”=between 25 to 50% of the activity remaining))
Cc1cc2ncc(-c3ccc(O)c(O)c3)nc2cc1C [AG-1433] | H (high inhibition (“H”=less than 25% of the activity remaining)) | H (high inhibition (“H”=less than 25% of the activity remaining)) | H (high inhibition (“H”=less than 25% of the activity remaining)) | H (high inhibition (“H”=less than 25% of the activity remaining)) | H (high inhibition (“H”=less than 25% of the activity remaining))
COc1c(C=O)c(O)cc2c1C(=O)c1ccccc1C2=O [Damnacanthal] | H (high inhibition (“H”=less than 25% of the activity remaining)) | H (high inhibition (“H”=less than 25% of the activity remaining)) | H (high inhibition (“H”=less than 25% of the activity remaining)) | H (high inhibition (“H”=less than 25% of the activity remaining)) | H (high inhibition (“H”=less than 25% of the activity remaining))
Cc1ccc(-c2nn(C(C)(C)C)c3ncnc(N)c23)cc1 [PP1] |  | L (low inhibition (“L”=between 50–75% of the activity remaining)) | M (medium inhibition (“M”=between 25 to 50% of the activity remaining)) | L (low inhibition (“L”=between 50–75% of the activity remaining)) | M (medium inhibition (“M”=between 25 to 50% of the activity remaining))
COc1cc2ncnc(Nc3ccc(Cl)cc3F)c2cc1OC [VEGFR inhibitor] | L (low inhibition (“L”=between 50–75% of the activity remaining)) |  | L (low inhibition (“L”=between 50–75% of the activity remaining)) | M (medium inhibition (“M”=between 25 to 50% of the activity remaining)) | L (low inhibition (“L”=between 50–75% of the activity remaining))
COc1cc2ncnc(Nc3ccc(O)cc3)c2cc1OC [WHI-P131] | L (low inhibition (“L”=between 50–75% of the activity remaining)) | L (low inhibition (“L”=between 50–75% of the activity remaining)) | H (high inhibition (“H”=less than 25% of the activity remaining)) | M (medium inhibition (“M”=between 25 to 50% of the activity remaining)) | L (low inhibition (“L”=between 50–75% of the activity remaining))
Erbstatin analog |  |  | L (low inhibition (“L”=between 50–75% of the activity remaining)) | L (low inhibition (“L”=between 50–75% of the activity remaining)) | 
